The values that follow come from patent US6545040B1, “Method of lowering the blood pressure” (Janssen Pharmaceutica N.V., priority 1988, dated 2003).

SMILES strings stand for the structures.

For the assay, the system named is spontaneous hypertensive rats. As to the kind of experiment: Blood pressure and heart rate in conscious spontaneous hypertensive rats after intraperitoneal injection. Format: in vivo. The settings on record: alone. The protocol:
Adult spontaneous hypertensive rats (6 months of age) were anesthetized by ether inhalation. The femoral artery was dissected and cannulated, and the catheter was connected to a strain-gauge blood pressure transducer. When the animals were fully awake, they were restrained and the systolic and diastolic arterial blood pressure were continuously recorded. An observation period of at least 30 min preceded the administration of the test compound. All test compounds were dissolved in 20% polypropylene glycol and injected intraperitoneally. After administration of the test drug the systolic and diastolic arterial blood pressure and the heart rate were recorded during a period of 120 minutes.

The mark [1] stands for this setting: 1.25 mpk i.p., treated vs untreated animals.

For `CC(C)NCC(O)COc1ccc(CC(N)=O)cc1` (stereo not drawn) [Atenolol, atenolol], under “10 mpk i.p.”, the “Δ% change in diastolic blood pressure (DBP), average 120 min” value (“Δ% change in diastolic blood pressure” below) is on record as “+5.9%”; the “Δ% change in heart rate (HR), average 120 min” value (shortened to “Δ% change in heart rate (HR)”) is −28.1%; the “Δ% change in systolic blood pressure (SBP), average 120 min” value (from here on “Δ% change in systolic blood pressure”) is reported as −3.7%.

Regarding `NNc1nncc2ccccc12` [Hydralazine, hydralazine], where the note is “0.63 mpk i.p.”, the “Δ% change in diastolic blood pressure” value was −9.9%; the “Δ% change in heart rate (HR)” value is given as −1.45%; the “Δ% change in systolic blood pressure” value is given as −7.5%.

Regarding `COCCc1ccc(OCC(O)CNC(C)C)cc1` (stereo not drawn) [Metoprolol, metoprolol], where the note is “10 mpk i.p.”, the “Δ% change in diastolic blood pressure” value is given as “+12.8%”; the “Δ% change in heart rate (HR)” value is −16.6%; the “Δ% change in systolic blood pressure” value is reported as −1.2%.

For `Cc1ccc(N(CC2=NCCN2)c2cccc(O)c2)cc1` [Phentolamine, phentolamine], for the setting “0.63 mpk i.p.”, the “Δ% change in diastolic blood pressure” value was −13.1%; the “Δ% change in heart rate (HR)” value is listed as “+5.1%”; the “Δ% change in systolic blood pressure” value is −9.85%.

Take `COc1cc2nc(N3CCN(C(=O)c4ccco4)CC3)nc(N)c2cc1OC` [Prazosin, prazosin]: where the note is “0.01 mpk i.p.”, the “Δ% change in diastolic blood pressure” value is on record as −11.3%; the “Δ% change in heart rate (HR)” value is given as “+1.6%”; the “Δ% change in systolic blood pressure” value is reported as −10.9%.

Turning to `CC(C)NCC(O)COc1cccc2ccccc12` (stereo not drawn) [Propranolol, propranolol], under “5 mpk i.p.”, the “Δ% change in diastolic blood pressure” value is listed as “+12.4%”; the “Δ% change in heart rate (HR)” value was −20.7%; the “Δ% change in systolic blood pressure” value is reported as −2%.

On to `O[C@@H](CNC[C@H](O)[C@H]1CCc2cc(F)ccc2O1)[C@@H]1CCc2cc(F)ccc2O1` [compound 1], for which, under setting [1], the “Δ% change in diastolic blood pressure” value was “+2.1%”; the “Δ% change in heart rate (HR)” value was 0.5%; the “Δ% change in systolic blood pressure” value amounted to 0%. For the setting “2.5 mpk i.p.”, the “Δ% change in diastolic blood pressure” value was found to be 0%; the “Δ% change in heart rate (HR)” value was determined as 0%; the “Δ% change in systolic blood pressure” value is −7%.
